# Measured values published in US20050197350A1, “Novel quinoline, tetrahydroquinazoline, and pyrimidine derivatives and methods of treatment related to the use thereof” (TAISHO PHARMACEUTICAL CO., LTD., priority 2003, published 2005).
# System: MCH receptors
# Experiment: MCH receptor activity class (method not given)
# [1] = class by percent of control at 10^-7 M or IC50
# [2] = MCH receptor activity class 1-3 (percent of control at 10^-7 M or IC50)
# [3] = activity class per percent of control at 10^-7 M or IC50
# [4] = MCH receptor, class by percent of control at 10^-7 M or IC50
# [5] = class by percent of control at 10^−7 M or IC50
# [6] = activity class 1-3: percent of control at 10^-7 M or IC50
structure (smiles),measurement,setting,value
COc1ccc(CNC[C@H]2CC[C@@H](Nc3nc4c(c(N(C)C)n3)CCCC4)CC2)cc1 [compound 1383],class,[1],3 (Class 3 The value of percent of control at 10^−7 M was more than 60% or the value of IC50 was more than 200 nM.)
CN(C)c1ccnc(N[C@H]2CC[C@@H](CNC(=O)Nc3c(Cl)cccc3C(F)(F)F)CC2)n1 [compound 2419],class,[2],1 (Class 1: The value of percent of control at 10^−7 M was less than 40% or the value of IC50 was less than 50 nM.)
Cc1c(C(=O)N[C@H]2CC[C@@H](Nc3nc4c(c(N(C)C)n3)CCCC4)CC2)cc(-c2ccccc2)n1CCCN1CCOCC1 [compound 1000],class,[3],1 (Class 1: The value of percent of control at 10^−7 M was less than 40% or the value of IC50 was less than 50 nM.)
CN(C)c1cc(N[C@H]2CC[C@@H](NC(=O)Cc3ccc(F)cc3Cl)CC2)nc2ccccc12 [compound 675],class,[1],3 (Class 3 The value of percent of control at 10^−7 M was more than 60% or the value of IC50 was more than 200 nM.)
Cc1noc(C)c1NC(=O)N[C@H]1CC[C@@H](Nc2nc3c(c(N(C)C)n2)CCCC3)CC1 [compound 1924],class,[4],3 (Class 3 The value of percent of control at 10^−7 M was more than 60% or the value of IC50 was more than 200 nM.)
Cc1cc([N+](=O)[O-])ccc1NC(=O)N[C@H]1CC[C@@H](Nc2nccc(N(C)C)n2)CC1 [compound 2234],class,[1],3 (Class 3 The value of percent of control at 10^−7 M was more than 60% or the value of IC50 was more than 200 nM.)
CN(C)c1nc(N[C@H]2CC[C@@H](NC(=S)Nc3ccc(Br)cc3)CC2)nc2c1CCCC2 [compound 1737],class,[1],3 (Class 3 The value of percent of control at 10^−7 M was more than 60% or the value of IC50 was more than 200 nM.)
Cc1cnc(N[C@H]2CC[C@@H](NC(=O)CN(C)c3cccc(Cl)c3)CC2)nc1N(C)C [compound 2941],class,[5],1 (Class 1: The value of percent of control at 10^−7 M was less than 40% or the value of IC50 was less than 50 nM.)
COc1ccc(CNC[C@H]2CC[C@@H](Nc3cc(N(C)C)c4ccccc4n3)CC2)cc1 [compound 1141],class,[3],3 (Class 3 The value of percent of control at 10^−7 M was more than 60% or the value of IC50 was more than 200 nM.)
CCCCCCCCOC(=O)NC[C@H]1CC[C@@H](Nc2nccc(N(C)C)n2)CC1 [compound 1646],class,[6],3 (Class 3 The value of percent of control at 10^−7 M was more than 60% or the value of IC50 was more than 200 nM.)
CN(C)c1nc(N[C@H]2CC[C@@H](CNC(=O)c3ccc(C#N)cc3)CC2)nc2c1CCCC2 [compound 639],class,[1],3 (Class 3 The value of percent of control at 10^−7 M was more than 60% or the value of IC50 was more than 200 nM.)
CCc1cccc(C)c1NC(=O)N[C@H]1CC[C@@H](Nc2nc3c(c(N(C)C)n2)CCCC3)CC1 [compound 1662],class,[6],1 (Class 1: The value of percent of control at 10^−7 M was less than 40% or the value of IC50 was less than 50 nM.)
CN(C)c1cc(N[C@H]2CC[C@@H](NC(=O)OCc3ccc([N+](=O)[O-])cc3)CC2)nc2ccccc12 [compound 56],class,[4],3 (Class 3 The value of percent of control at 10^−7 M was more than 60% or the value of IC50 was more than 200 nM.)
CN(C)c1ccnc(N[C@H]2CC[C@@H](CNC(=O)/C=C/c3ccccc3Cl)CC2)n1 [compound 452],class,class 1-3 by percent of control at 10^-7 M or IC50,2 (Class 2: The value of percent of control at 10^−7 M was from 40% to 60% or the value of IC′50 was from 50 nM to 200 nM.)
CN(C)c1nc(N[C@H]2CC[C@@H](CNCc3cc(C(F)(F)F)cc(Cl)c3F)CC2)nc2c1CCCC2 [compound 1439],class,[1],3 (Class 3 The value of percent of control at 10^−7 M was more than 60% or the value of IC50 was more than 200 nM.)
CN(C)c1nc(N[C@H]2CC[C@@H](NC(=S)Nc3cccc(Cl)c3Cl)CC2)nc2c1CCCC2 [compound 1971],class,[4],3 (Class 3 The value of percent of control at 10^−7 M was more than 60% or the value of IC50 was more than 200 nM.)
Cc1cccc(C(=O)N[C@H]2CC[C@@H](Nc3nccc(N(C)C)n3)CC2)c1N [compound 922],class,[1],3 (Class 3 The value of percent of control at 10^−7 M was more than 60% or the value of IC50 was more than 200 nM.)
CCOc1ccccc1C(=O)NC[C@H]1CC[C@@H](Nc2cc(N(C)C)c3ccccc3n2)CC1 [compound 199],class,[4],3 (Class 3 The value of percent of control at 10^−7 M was more than 60% or the value of IC50 was more than 200 nM.)
CN(C)c1ccnc(N[C@H]2CC[C@@H](CNC(=O)c3ccc(-c4ccc(Cl)cc4[N+](=O)[O-])o3)CC2)n1 [compound 928],class,[1],3 (Class 3 The value of percent of control at 10^−7 M was more than 60% or the value of IC50 was more than 200 nM.)
CN(C)c1cc(N[C@H]2CC[C@@H](CNC(=O)Nc3ccc(F)cc3F)CC2)nc2ccccc12 [compound 2361],class,[2],3 (Class 3 The value of percent of control at 10^−7 M was more than 60% or the value of IC50 was more than 200 nM.)
CN(C)c1nc(N[C@H]2CC[C@@H](CNCc3ccccc3OC(F)(F)F)CC2)nc2c1CCCC2 [compound 1410],class,[1],3 (Class 3 The value of percent of control at 10^−7 M was more than 60% or the value of IC50 was more than 200 nM.)
CN(C)c1nc(N[C@H]2CC[C@@H](NCCc3c(-c4ccccc4)[nH]c4ccccc34)CC2)nc2c1CCCC2 [compound 1494],class,[1],3 (Class 3 The value of percent of control at 10^−7 M was more than 60% or the value of IC50 was more than 200 nM.)
CN(C)c1nc(N[C@H]2CC[C@@H](NC(=O)Nc3cc(F)cc(F)c3)CC2)nc2c1CCCC2 [compound 1804],class,[1],3 (Class 3 The value of percent of control at 10^−7 M was more than 60% or the value of IC50 was more than 200 nM.)
CN(C)c1nc(N[C@H]2CC[C@@H](NC(=S)Nc3cccc(Cl)c3)CC2)nc2c1CCCC2 [compound 1933],class,[4],3 (Class 3 The value of percent of control at 10^−7 M was more than 60% or the value of IC50 was more than 200 nM.)
"Cc1cnc(NC[C@H]2CC[C@@H](NC(=O)c3cc(C(F)(F)F)cc(C(F)(F)F)c3)CC2)nc1N(C)C [compound 2731, N-[cis-4-({[4-(dimethylamino)-5-methylpyrimidin-2-yl]amino}methyl)cyclohexyl]-3,5-bis(trifluoromethyl)benzamide]",class,[5],2 (Class 2: The value of percent of control at 10^−7 M was from 40% to 60% or the value of IC′50 was from 50 nM to 200 nM.)
Cc1c(C(=O)N[C@H]2CC[C@@H](Nc3cc(N(C)C)c4ccccc4n3)CC2)cc(-c2ccccc2)n1CCSCc1c(F)cccc1Cl [compound 752],class,[1],3 (Class 3 The value of percent of control at 10^−7 M was more than 60% or the value of IC50 was more than 200 nM.)
CN(C)c1nc(N[C@H]2CC[C@@H](CNC(=O)c3cccs3)CC2)nc2c1CCCC2 [compound 614],class,[1],3 (Class 3 The value of percent of control at 10^−7 M was more than 60% or the value of IC50 was more than 200 nM.)
"Cc1cc(N(C)C)nc(N[C@H]2CC[C@@H](CNC(=O)c3ccccc3)CC2)n1 [compound 2751, N-[(cis-4-{[4-(dimethylamino)-6-methylpyrimidin-2-yl]amino}cyclohexyl)methyl]benzamide]",class,[5],3 (Class 3 The value of percent of control at 10^−7 M was more than 60% or the value of IC50 was more than 200 nM.)
CN(C)c1nc(N[C@H]2CC[C@@H](NC(=O)NC(c3ccccc3)c3ccccc3)CC2)nc2c1CCCC2 [compound 1689],class,[6],1 (Class 1: The value of percent of control at 10^−7 M was less than 40% or the value of IC50 was less than 50 nM.)
